Results taken from patent publication US20260295053A1, “COMPOUNDS FOR DEGRADATION AND INHIBITION OF KRAS (G12D) PROTEIN” (Shenzhen Ionova Life Science Co., Ltd., priority 2023, published 2026).

Key:
AsPC-1 cells = assay: AsPC-1 cell proliferation assay (CellTiter Glo); assay type: cell-based; details: 6 days
Description: ASPC-1 and PK-59 cellular assays ASPC-1 (ATCC cat. CRL-1682) and PK-59 (Nanjing Cobioer, Cat. No. CBP61184) were used in KRAS cellular degradation, pERK inhibition and proliferation assays. The two cell lines were maintained following vendor's instructions. For monitoring KRAS (G12D) cellular degradation and pERK biomarker inhibition, cells were seeded into a 96-well plate with 22,000 and 16,000 cells/well for assays in ASPC-1 and PK-59, respectively. Cells were incubated at 37° C. with 5% CO2 and cell density was monitored until ^~90% confluency was reached. Compounds were serially diluted at a 1:3 ratio and dispensed into each well at final concentrations ranging from […] to 1.5 nM. After incubation for 24 hours, the culture media were removed and the cells were subjected to fixation, permeabilization and blocking (Intercept blocking buffer, Li-cor). For KRAS (G12D) degradation, the cells were treated with primary antibody (KRAS G12D antibody, Cell Signaling Technologies, Cat. No. CST14429) and for β-actin (β-actin mAb, Beyotime, Cat. No. AF-5001), and followed by secondary antibodies, Anti-rabbit IgG (H+L) (DyLight™ 800 4×PEG Conjugate) or IRDye® 680RD Goat anti-Mouse IgG. For pERK inhibition assay, cells were treated with primary antibodies for pERK (Phospho-p44/42 MAPK (Erk1/2) (Thr202/Tyr204) (D13.14.4E) XP® Rabbit mAb, Cell Signaling Technologies, Cat. No. CST-4370) and β-actin (β-actin mAb, Beyotime, Cat. No. AF-5001), and followed by secondary antibodies, Anti-rabbit IgG (H+L) (DyLight™ 800 4×PEG Conjugate) or IRDye® 680RD Goat anti-Mouse IgG. Fluorescence signals were read on Odyssey CLX instrument. For cell proliferation assays, cells were seeded into a 96-well plate at 3,500 and 800 cells/well for assays in ASPC-1 and PK-59, respectively. Cells were incubated at 37° C. with 5% CO2 for overnight. Compounds were serially diluted at a 1:3 ratio and dispensed into each well at final concentrations ranging from […] to 1.5 nM. After incubation for 6 days, cell viability reagent (CellTiter Glo, Promega, Cat. No. G7573) was added to each well and luminescence was recorded on Molecular Devices Spectramax iD3 instrument. IC50, half-maximal inhibitory concentration for pERK inhibition or cell proliferation, and DC50, half-maximal degradation concentration in KRAS (G12D) cellular degradation were determined by fitting the corresponding dose response curves using GraphPad Prism software.
Wherein “A” means the value <10 nM, “B” means 10 nM<the value <100 nM, “C” means 100 nM<the value <1000 nM, and “D” means the value >1000 nM, in which, the value means the value of DC50 or IC50. NT means not tested.

KRAS (G12D) = molecular target: T1, KRAS (G12D) (Homo sapiens, UniProt P01116, G12D); assay: KRAS (G12D) cellular degradation assay in AsPC-1 cells; assay type: cell-based; details: 24 hours, antibody fluorescence (Odyssey CLX), DC50 half-maximal degradation concentration
T1 construct: in-cell western with KRAS G12D antibody after 24 h
In short: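 AsPC-1 cells: for degradation, grown to ~90% confluency, treated 24 h with 1:3 compound series ([…] to 1.5 nM), then fixed and immunostained for KRAS G12D and β-actin, read by infrared fluorescence, DC50 fitted. Proliferation: 3,500 cells/well, 6-day treatment, CellTiter Glo luminescence, IC50 fitted.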

T1 sequence (P01116 1-188 isoform P01116-2 G12D): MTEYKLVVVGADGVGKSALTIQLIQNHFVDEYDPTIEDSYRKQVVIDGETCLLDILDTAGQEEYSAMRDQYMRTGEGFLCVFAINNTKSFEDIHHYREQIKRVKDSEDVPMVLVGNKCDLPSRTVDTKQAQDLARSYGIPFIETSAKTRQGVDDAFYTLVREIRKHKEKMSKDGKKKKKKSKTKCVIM

IC50 (AsPC-1 cells; Homo sapiens, ASPC1, 144 h) [nM]	DC50 (KRAS (G12D)) [nM]	IC50 (AsPC-1 cells) [nM]	Structure (SMILES)
10 to 100	10 to 100		CO[C@@H](C)COc1nc(N2C[C@@H]3C[C@H]2CN3)c2cc(C3CC3)c(-c3c(C)c(F)cc4[nH]ncc34)c(OCc3ccc(-c4cn([C@H](C(=O)N5C[C@H](O)C[C@H]5C(=O)N[C@H](C#Cc5c(F)cccc5F)CO)C(C)C)nn4)cc3)c2n1 [Example 42, (2S,4R)-1-((2S)-2-(4-(4-(((4-((1S,4S)-2,5-diazabicyclo[2.2.1]heptan-2-yl)-6-cyclopropyl-7-(6-fluoro-5-methyl-1H-indazol-4-yl)-2-((S)-2-methoxypropoxy)quinazolin-8-yl)oxy)methyl)phenyl)-1H-1,2,3-triazol-1-yl)-3-methylbutanoyl)-N—((R)-4-(2,6-difluorophenyl)-1-hydroxybut-3-yn-2-yl)-4-hydroxypyrrolidine-2-carboxamide]
< 10	< 10		CCn1nccc1-c1ccc([C@H](CO)NC(=O)[C@@H]2C[C@@H](O)CN2C(=O)[C@H](C(C)C)n2cc(-c3ccc(COc4c(-c5c(C)c(F)cc6[nH]ncc56)c(C5CC5)cc5c(N(C)C[C@H]6CCNC6)nc(OC[C@H](C)OC)nc45)cc3)nn2)cc1 [Example 206, (2S,4R)-1-((2S)-2-(4-(4-(((6-cyclopropyl-7-(6-fluoro-5-methyl-1H-indazol-4-yl)-2-((S)-2-methoxypropoxy)-4-(methyl(((S)-pyrrolidin-3-yl)methyl)amino)quinazolin-8-yl)oxy)methyl)phenyl)-1H-1,2,3-triazol-1-yl)-3-methylbutanoyl)-N—((R)-1-(4-(1-ethyl-1H-pyrazol-5-yl)phenyl)-2-hydroxyethyl)-4-hydroxypyrrolidine-2-carboxamide]
< 10	< 10		CO[C@@H](C)COc1nc(N2C[C@@H]3C[C@H]2CN3)c2cc(C3CC3)c(-c3c(C)c(F)cc4[nH]ncc34)c(OCc3ccc(-c4cn([C@H](C(=O)N5C[C@H](O)C[C@H]5C(=O)N[C@H](C#Cc5cccc6ncsc56)CO)C(C)C)nn4)cc3)c2n1 [Example 92, (2S,4R)-1-((2S)-2-(4-(4-(((4-((1S,4S)-2,5-diazabicyclo[2.2.1]heptan-2-yl)-6-cyclopropyl-7-(6-fluoro-5-methyl-1H-indazol-4-yl)-2-((S)-2-methoxypropoxy)quinazolin-8-yl)oxy)methyl)phenyl)-1H-1,2,3-triazol-1-yl)-3-methylbutanoyl)-N—((R)-4-(benzo[d]thiazol-7-yl)-1-hydroxybut-3-yn-2-yl)-4-hydroxypyrrolidine-2-carboxamide]
< 10	< 10		CCn1nccc1-c1ccc([C@H](CO)NC(=O)[C@@H]2C[C@@H](O)CN2C(=O)[C@H](C(C)C)n2cc(-c3ccc(COc4c(-c5c(C)c(F)c(F)c6[nH]ncc56)c(C5CC5)cc5c(N6C[C@@H]7C[C@H]6CN7)nc(OC[C@H](C)OC)nc45)cc3)nn2)cc1 [Example 57, (2S,4R)-1-((2S)-2-(4-(4-(((4-((1S,4S)-2,5-diazabicyclo[2.2.1]heptan-2-yl)-6-cyclopropyl-7-(6,7-difluoro-5-methyl-1H-indazol-4-yl)-2-((S)-2-methoxypropoxy)quinazolin-8-yl)oxy)methyl)phenyl)-1H-1,2,3-triazol-1-yl)-3-methylbutanoyl)-N—((R)-1-(4-(1-ethyl-1H-pyrazol-5-yl)phenyl)-2-hydroxyethyl)-4-hydroxypyrrolidine-2-carboxamide]
< 10	< 10		Cc1ncsc1-c1ccc([C@H](CO)NC(=O)[C@@H]2C[C@@H](O)CN2C(=O)[C@H](C(C)C)n2cc(-c3ccc(COc4c(-c5c(C)c(F)cc6[nH]ncc56)c(C5CC5)cc5c(N6CC7CCC(C6)N7)nc(OC6CCOCC6)nc45)cc3)nn2)cc1 [Example 49, (2S,4R)-1-((2S)-2-(4-(4-(((4-(3,8-diazabicyclo[3.2.1]octan-3-yl)-6-cyclopropyl-7-(6-fluoro-5-methyl-1H-indazol-4-yl)-2-((tetrahydro-2H-pyran-4-yl)oxy)quinazolin-8-yl)oxy)methyl)phenyl)-1H-1,2,3-triazol-1-yl)-3-methylbutanoyl)-4-hydroxy-N—((R)-2-hydroxy-1-(4-(4-methylthiazol-5-yl)phenyl)ethyl)pyrrolidine-2-carboxamide]
< 10	10 to 100		CO[C@@H](C)COc1nc(N2C[C@@H]3C[C@H]2CN3)c2cc(C3CC3)c(-c3c(C)c(F)cc4[nH]ncc34)c(OCc3ccc(-c4cn([C@H](C(=O)N5C[C@H](O)C[C@H]5C(=O)N[C@H](C#Cc5cccc(Cl)c5F)CO)C(C)C)nn4)cc3)c2n1 [Example 78, (2S,4R)-1-((2S)-2-(4-(4-(((4-((1S,4S)-2,5-diazabicyclo[2.2.1]heptan-2-yl)-6-cyclopropyl-7-(6-fluoro-5-methyl-1H-indazol-4-yl)-2-((S)-2-methoxypropoxy)quinazolin-8-yl)oxy)methyl)phenyl)-1H-1,2,3-triazol-1-yl)-3-methylbutanoyl)-N—((R)-4-(3-chloro-2-fluorophenyl)-1-hydroxybut-3-yn-2-yl)-4-hydroxypyrrolidine-2-carboxamide]
10 to 100	10 to 100		CO[C@@H](C)COc1nc(N2C[C@@H]3C[C@H]2CN3)c2cc(C3CC3)c(-c3c(C)c(F)cc4[nH]ncc34)c(OCc3ccc(-c4cn([C@H](C(=O)N5C[C@H](O)C[C@H]5C(=O)N[C@H](C#Cc5cc(C)cc6[nH]ncc56)CO)C(C)C)nn4)cc3)c2n1 [Example 188, (2S,4R)-1-((2S)-2-(4-(4-(((4-((1S,4S)-2,5-diazabicyclo[2.2.1]heptan-2-yl)-6-cyclopropyl-7-(6-fluoro-5-methyl-1H-indazol-4-yl)-2-((S)-2-methoxypropoxy)quinazolin-8-yl)oxy)methyl)phenyl)-1H-1,2,3-triazol-1-yl)-3-methylbutanoyl)-4-hydroxy-N—((R)-1-hydroxy-4-(6-methyl-1H-indazol-4-yl)but-3-yn-2-yl)pyrrolidine-2-carboxamide]
	> 1000	> 1000	CCn1nccc1-c1ccc([C@H](C)NC(=O)[C@@H]2C[C@@H](O)CN2C(=O)[C@H](C(C)C)n2cc(-c3ccc(COc4c(-c5c(C)c(F)cc6[nH]ncc56)c(C5CC5)cc5c(N6C[C@H]7C[C@@H]6CN7)nc(OC[C@H](C)OC)nc45)cc3)nn2)cc1 (single isomer, unassigned) [Example 4B]
< 10	< 10		CCn1nccc1-c1ccc([C@@H](NC(=O)[C@@H]2C[C@@H](O)CN2C(=O)[C@H](C(C)C)n2cc(-c3ccc(COc4c(-c5c(C)c(F)cc6[nH]ncc56)c(C5CCC5)cc5c(N6C[C@@H]7C[C@H]6CN7)nc(OC[C@H](C)OC)nc45)cc3)nn2)[C@H](C)O)cc1 [Example 88, (2S,4R)-1-((2S)-2-(4-(4-(((4-((1S,4S)-2,5-diazabicyclo[2.2.1]heptan-2-yl)-6-cyclobutyl-7-(6-fluoro-5-methyl-1H-indazol-4-yl)-2-((S)-2-methoxypropoxy)quinazolin-8-yl)oxy)methyl)phenyl)-1H-1,2,3-triazol-1-yl)-3-methylbutanoyl)-N-((1R,2S)-1-(4-(1-ethyl-1H-pyrazol-5-yl)phenyl)-2-hydroxypropyl)-4-hydroxypyrrolidine-2-carboxamide]
10 to 100	10 to 100		CCn1nccc1-c1ccc(CNC(=O)[C@@H]2C[C@@H](O)CN2C(=O)[C@H](C(C)C)n2cc(-c3ccc(COc4c(-c5c(C)c(F)cc6[nH]ncc56)c(C5CC5)cc5c(N6C[C@@H]7C[C@H]6CN7)nc(OC[C@H](C)OC)nc45)cc3)nn2)c2c1CC2 [Example 36, (2S,4R)-1-((2S)-2-(4-(4-(((4-((1S,4S)-2,5-diazabicyclo[2.2.1]heptan-2-yl)-6-cyclopropyl-7-(6-fluoro-5-methyl-1H-indazol-4-yl)-2-((S)-2-methoxypropoxy)quinazolin-8-yl)oxy)methyl)phenyl)-1H-1,2,3-triazol-1-yl)-3-methylbutanoyl)-N-((5-(1-ethyl-1H-pyrazol-5-yl)bicyclo[4.2.0]octa-1(6),2,4-trien-2-yl)methyl)-4-hydroxypyrrolidine-2-carboxamide]
